≈ marks a conversion by molar mass, not a printed value.
Assays:
[1] = system: P. falciparum W2; test: Malaria SYBR Green Fluorescence Assay, W2 strain; assay type: cell-based, Plasmodium falciparum
[2] = system: P. berghei; test: Thompson Test, in vivo mouse malaria assay; parameters: species or system mice (ICR strain)
[3] = system: P. falciparum C235; test: Malaria SYBR Green Fluorescence Assay, C235 strain; assay type: cell-based, Plasmodium falciparum
[4] = system: P. falciparum D6; test: Malaria SYBR Green Fluorescence Assay, D6 strain; assay type: cell-based, Plasmodium falciparum
[5] = molecular target: hERG potassium ion channel (Homo sapiens, UniProt Q12809); test: hERG patch clamp assay (% inhibition at 10 μM); details: for hERG (% inhibition): 10 μM
Sequence of hERG potassium ion channel (Q12809 whole entry): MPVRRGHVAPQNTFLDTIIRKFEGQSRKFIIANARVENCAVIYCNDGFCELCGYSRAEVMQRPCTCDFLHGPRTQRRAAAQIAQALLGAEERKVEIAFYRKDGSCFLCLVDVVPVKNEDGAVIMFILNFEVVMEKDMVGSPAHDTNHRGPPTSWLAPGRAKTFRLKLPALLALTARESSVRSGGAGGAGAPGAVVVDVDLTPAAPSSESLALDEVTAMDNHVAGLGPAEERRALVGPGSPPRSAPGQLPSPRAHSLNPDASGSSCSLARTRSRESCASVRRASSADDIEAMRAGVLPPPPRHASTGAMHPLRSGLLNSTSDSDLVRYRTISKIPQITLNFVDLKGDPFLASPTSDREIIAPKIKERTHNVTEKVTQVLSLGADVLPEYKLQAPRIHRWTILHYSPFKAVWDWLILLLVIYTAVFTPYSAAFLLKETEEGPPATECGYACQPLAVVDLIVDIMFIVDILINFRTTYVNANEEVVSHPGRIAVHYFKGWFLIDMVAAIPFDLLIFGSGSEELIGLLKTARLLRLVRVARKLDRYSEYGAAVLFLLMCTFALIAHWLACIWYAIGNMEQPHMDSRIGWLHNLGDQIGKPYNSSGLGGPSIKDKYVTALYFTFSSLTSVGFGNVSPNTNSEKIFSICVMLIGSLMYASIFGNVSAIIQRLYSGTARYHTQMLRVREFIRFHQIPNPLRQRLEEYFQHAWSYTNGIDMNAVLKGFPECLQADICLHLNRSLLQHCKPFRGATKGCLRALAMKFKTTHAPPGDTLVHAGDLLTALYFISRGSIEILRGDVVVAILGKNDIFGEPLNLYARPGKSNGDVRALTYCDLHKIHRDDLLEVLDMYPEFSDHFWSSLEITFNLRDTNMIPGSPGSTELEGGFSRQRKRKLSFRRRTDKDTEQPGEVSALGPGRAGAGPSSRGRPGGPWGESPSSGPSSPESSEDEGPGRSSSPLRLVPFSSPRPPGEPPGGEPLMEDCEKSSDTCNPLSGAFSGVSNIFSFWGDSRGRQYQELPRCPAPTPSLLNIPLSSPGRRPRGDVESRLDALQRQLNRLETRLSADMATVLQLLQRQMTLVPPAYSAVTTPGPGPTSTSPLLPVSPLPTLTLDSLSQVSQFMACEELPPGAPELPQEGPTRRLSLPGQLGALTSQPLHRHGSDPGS

[6] = % inhibition at 10 μM, patch clamp
[7] = (160 × 3): 160 mg/kg for 3 days
[8] = Plasmodium falciparum, SYBR Green Assay

| Molecule | W2 ([1]; SYBR Green Assay) [ng/mL] | In vivo Results Thompson Assay (n/N Cures or Suppressive) ([2]; (80 × 3): 80 mg/kg for 3 days) | C235 ([3]; SYBR Green Assay) [ng/mL] | D6 ([4]; SYBR Green Assay) [ng/mL] | hERG [5, 6] [%] | also measured |
| --- | --- | --- | --- | --- | --- | --- |
| Cc1ccc(-c2nc(N3CCCNCC3)nc(C(Cl)(Cl)Cl)n2)cc1 [Compound 102] | 44 | (80 × 3) Suppressive | 48 | 58 | 47 |  |
| CC(C)(N)CNc1nc(-c2ccc(S(C)(=O)=O)cc2)nc(C(Cl)(Cl)Cl)n1 [Compound 97] | 20 | (80 × 3) Suppressive; | 33 | 26 | 35 | In vivo Results Thompson Assay (n/N Cures or Suppressive) [2, 7]: (160 × 3) Suppressive |
| CCC(N)(CC)CNc1nc(-c2ccc(S(C)(=O)=O)cc2)nc(C(Cl)(Cl)Cl)n1 [Compound 365] |  | (80 × 3) Suppressive |  |  |  | W2 (SYBR Green Assay IC50) [1]: 0.005 µg/mL; C235 (SYBR Green Assay IC50) [3]: 0.01 µg/mL; D6 (SYBR Green Assay IC50) [4]: 0.005 µg/mL; hERG (% inhibition) [5]: 69% |
| CC(C)(N)CNc1nc(-c2cc(Cl)cc(Cl)c2)nc(C(Cl)(Cl)Cl)n1 [Compound 195] | 6 | 5/5 | 3 | 6 | 3 | In vivo Results Thompson Assay (n/N Cures or Suppressive) ([2]; (40 × 3): 40 mg/kg for 3 days): 2/5; In vivo Results Thompson Assay (n/N Cures or Suppressive) [2, 7]: Cures; (160 × 3) 5/5 Cures |
| NC1(CNC2═NC(═NC(═N2)C2═CC═C(C═C2)C2═CC═CC═C2)C(Cl)(Cl)Cl)CCCC1 [Compound 672] | 30 | (80 × 3) 4/4 Cures | 68 | 46 |  | hERG ([5]; hERG activity as % inhibition): 33% |
| COc1ccc(-c2nc(NC3CC(C)(C)NC(C)(C)C3)nc(C(Cl)(Cl)Cl)n2)cc1OC [Compound 328] | 40 | (80 × 3) 2/5 Cures | 84 | 64 | 31 |  |
| CC(C)CN1CCC(Nc2nc(-c3ccc(C(C)(C)C)cc3)nc(C(Cl)(Cl)Cl)n2)CC1 [Compound 694, CC(C)CN1CCC(CC1)NC1═NC(═NC(═N1)C(Cl)(Cl)Cl)C1═CC═C(C═C1)C(C)(C)C] | 23 | (80 × 3) Suppressive | 37 | 24 |  |  |
| OCCN1CCN(c2nc(-c3ccc(C(Cl)(Cl)Cl)cc3)nc(C(Cl)(Cl)Cl)n2)CC1 [Compound 119] | 12 | 4/5 | 46 | 29 | 18 | In vivo Results Thompson Assay (n/N Cures or Suppressive) ([2]; (40 × 3): 40 mg/kg for 3 days): 1/5 |
| ClC(Cl)(Cl)c1nc(-c2ccc3ccccc3c2)nc(N2CCCNCC2)n1 [Compound 227] | 10 | (80 × 3) 2/5 Cures | 12 | 29 | 18 |  |
| CN1CCN(c2nc(-c3ccc(C(Cl)(Cl)Cl)cc3)nc(C(Cl)(Cl)Cl)n2)CC1 [Compound 99] | 12 | (80 × 3) Suppressive | 21 | 59 | 16 |  |
| CS(=O)(=O)c1ccc(-c2nc(N3CCCNCC3)nc(C(Cl)(Cl)Cl)n2)cc1 [Compound 96] | 51 | (80 × 3) Suppressive | 96 | 70 | 65 |  |
| COc1cccc(-c2nc(NC3CCN(C)CC3)nc(C(Cl)(Cl)Cl)n2)c1 [Compound 193] | 22 | (80 × 3) Suppressive | 17 | 29 | 93 |  |
| CC1(C)CC(Nc2nc(-c3ccccc3)nc(C(Cl)(Cl)Cl)n2)CC(C)(C)N1 [Compound 320] | 2 | 4/4 | 20 | 11 |  | In vivo Results Thompson Assay (n/N Cures or Suppressive) ([2]; (40 × 3): 40 mg/kg for 3 days): 1/5 |
| CC(C)(C)c1ccc(-c2nc(NCC3(N)CCOCC3)nc(C(Cl)(Cl)Cl)n2)cc1 [Compound 314] | 2 | (80 × 3) Suppressive | 16 | 7 | 5 |  |
| FC(F)(F)c1cccc(-c2nc(N3CCCNCC3)nc(C(Cl)(Cl)Cl)n2)c1 [Compound 108] | 47 | (80 × 3) Suppressive | 82 | 70 | 28 |  |
| ClC(Cl)(Cl)c1nc(NCCCN2CCCC2)nc(Nc3ccc(cc3)n4cccn4)n1 [Compound 728] | 27 | (80 × 3) Suppressive | 79 | 77 |  | hERG ([5]; hERG activity as % inhibition): 116% |

| Molecule | W2 ([1]; SYBR Green Assay) [ng/mL] | In vivo Results Thompson Assay (n/N Cures or Suppressive) ([2]; (80 × 3): 80 mg/kg for 3 days) | C235 ([3]; SYBR Green Assay) [ng/mL] | D6 ([4]; SYBR Green Assay) [ng/mL] | hERG [5, 6] [%] | also measured |
| --- | --- | --- | --- | --- | --- | --- |
| CCN1CCCC(C1)Nc2nc(Nc3cc(Cl)cc(Cl)c3)nc(n2)C(Cl)(Cl)Cl [Compound 638] |  | (80 × 3) Suppressive |  |  |  | W2 (SYBR Green Assay IC50) [1]: 0.005 µg/mL; C235 (SYBR Green Assay IC50) [3]: 0.005 µg/mL; D6 (SYBR Green Assay IC50) [4]: 0.005 µg/mL; hERG (% inhibition) [5]: 49% |
| CN1CCCN(c2nc(-c3ccc(Cl)c(Cl)c3)nc(C(Cl)(Cl)Cl)n2)CC1 [Compound 113] | 23 | Suppressive | 35 | 33 | 64 | In vivo Results Thompson Assay (n/N Cures or Suppressive) [2, 7]: 4/5 |
| NC1(CNc2nc(-c3ccccc3)nc(C(Cl)(Cl)Cl)n2)CCOCC1 [Compound 313] | 2 | (80 × 3) 1/5 Cures | 14 | 7 |  |  |
| FC(F)(F)OC1═CC═C(NC2═NC(═NC(═N2)N2CCCNCC2)C(Cl)(Cl)Cl)C═C1 [Compound 659] | 18 | (80 × 3) 4/5 Cures | 38 | 19 |  | hERG ([5]; hERG activity as % inhibition): 58% |
| ClC(Cl)(Cl)c1ccc(cc1)c2nc(nc(n2)C(Cl)(Cl)Cl)N3CC4CC3CN4 [Compound 722] | 5 | Suppressive | 12 | 9 |  | In vivo Results Thompson Assay (n/N Cures or Suppressive) [2, 7]: 5/5; hERG ([5]; hERG activity as % inhibition): 14% |
| CC(C)(N)CNc1nc(-c2cccc(C(F)(F)F)c2)nc(C(Cl)(Cl)Cl)n1 [Compound 214] | 11 | 5/5 | 10 | 19 | 42 | In vivo Results Thompson Assay (n/N Cures or Suppressive) ([2]; (40 × 3): 40 mg/kg for 3 days): 2/5 |
| NC1CCN(CC1)c2nc(nc(n2)C(Cl)(Cl)Cl)c3ccc(cc3)C(Cl)(Cl)Cl [Compound 743] | 16 | (80 × 3) 3/5 Cures; (40 × 3) | 14 | 22 |  | In vivo Results Thompson Assay (n/N Cures or Suppressive) ([2]; (40 × 3): 40 mg/kg for 3 days): Suppressive; hERG ([5]; hERG activity as % inhibition): 15% |
| CC(C)(N)CNc1nc(-c2ccccc2)nc(C(Cl)(Cl)Cl)n1 [Compound 312] | 3 | (80 × 3) 3/3 Cures;(40 × 3) | 18 | 8 | 65 | In vivo Results Thompson Assay (n/N Cures or Suppressive) ([2]; (40 × 3): 40 mg/kg for 3 days): Suppressive |
| COC1═CC═CC(═C1)C1═NC(NCC2(N)CCCCC2)═NC(═N1)C(Cl)(Cl)Cl [Compound 661] | 2 | (80 × 3) Suppressive | 8 | 3 |  | hERG ([5]; hERG activity as % inhibition): 32% |
| FC(F)(F)c1cccc(-c2nc(N3CC4CC3CN4)nc(C(Cl)(Cl)Cl)n2)c1 (stereo not drawn) [Ex. 7, 2-(4-(trichloromethyl)-6-(3-(trifluoromethyl)phenyl)-1,3,5-triazin-2-yl)-2,5-diazabicyclo[2.2.1]heptane] |  | Suppressive |  |  |  | IC50 [1, 8]: 0.126 µg/mL (≈ 0.287 µM); In vivo Results Thompson Assay (n/N Cures or Suppressive) [2, 7]: 4/5; IC50 [3, 8]: 0.192 µg/mL (≈ 0.438 µM); IC50 [4, 8]: 0.106 µg/mL (≈ 0.242 µM); hERG ([5]; hERG activity as % inhibition): 29% |
| CC(CN(C)C)Nc1nc(Nc2ccc(Cl)c(Cl)c2)nc(n1)C(Cl)(Cl)Cl [Compound 640] |  |  |  |  |  | W2 (SYBR Green Assay IC50) [1]: 0.008 µg/mL; C235 (SYBR Green Assay IC50) [3]: 0.01 µg/mL; D6 (SYBR Green Assay IC50) [4]: 0.008 µg/mL; hERG (% inhibition) [5]: 23% |
| 3-(4-((3-(dimethylamino)propyl)amino)-6-(trichloromethyl)-1,3,5-triazin-2-yl)benzoic acid [Example 11] | 475 |  | 592 | 588 |  | hERG ([5]; hERG activity as % inhibition): 15% |
| NC1(CNC2═NC(═NC(═N2)C2═CC═C(C═C2)C(Cl)(Cl)Cl)C(Cl)(Cl)Cl)CCCCC1 [Compound 666] | 2 | (80 × 3) 2/4 Cures | 5 | 3 |  |  |
| CN1CCCC1CCNc1nc(Nc2ccccc2N2CCOCC2)nc(C(Cl)(Cl)Cl)n1 (stereo not drawn) [Cmpd 64] | 75 |  | 121 | 140 | 100 |  |
| CC(C)(C)c1ccc(-c2nc(N3CCNCC3)nc(C(Cl)(Cl)Cl)n2)cc1 [Cmpd 161] | 32 |  | 98 | 88 | 15 |  |
| ClC(Cl)(Cl)c1nc(Nc2ccncc2)nc(-c2ccc3ccccc3c2)n1 [Compound 235] | 8 | (80 × 3) Suppressive | 10 | 14 |  |  |

Reference: US9334246B2, “Substituted triazines for malaria treatment and chemoprophylaxis” (The United States of America, as represented by the …, priority 2013, dated 2016)
